SMILES strings stand for the structures. Substitutions are numbered along the chain they refer to.

Assay [1] deals with T1, D42A (Caulobacter vibrioides, UniProt Q9A6C9, D42A).
T1 construct: gene mipZ; hexahistidine-tagged, full length, overproduced in E. coli Rosetta2(DE3)pLysS
T1 sequence (Q9A6C9 1-278 D42A): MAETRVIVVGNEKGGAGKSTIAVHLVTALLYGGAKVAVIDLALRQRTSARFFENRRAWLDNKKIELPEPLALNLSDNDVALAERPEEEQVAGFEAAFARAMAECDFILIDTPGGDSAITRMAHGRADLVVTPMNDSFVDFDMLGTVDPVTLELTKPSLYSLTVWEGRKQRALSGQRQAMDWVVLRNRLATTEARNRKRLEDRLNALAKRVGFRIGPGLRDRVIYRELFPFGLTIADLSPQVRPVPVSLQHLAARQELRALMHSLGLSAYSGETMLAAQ
Briefly: Stopped-flow FRET transient kinetics of mant-ADP binding to MipZ (excitation 297 nm, 360 nm cut-off) at 30 °C in 50 mM Hepes/NaOH pH 7.2, 50 mM KCl, 10 mM MgCl2, 1 mM β-mercaptoethanol; KD calculated as koff/kon, with koff from displacement by excess unlabeled nucleotide. The text has this:
(§1) Once released from the dimeric complex, MipZ monomers must undergo nucleotide exchange to enter the next reaction cycle (Figure 2A). To clarify the requirements for the exchange reaction, we studied the nucleotide binding kinetics of MipZ by monitoring its interaction with methylanthraniloyl (mant)-labeled ADP and ATP analogs (Figure S3). Since the mant group blocks dimer formation, our measurements specifically focused on the initial nucleotide-binding step without interference from subsequent reactions.
(§2) Figure S3. Steady-state and transient kinetic analysis of nucleotide binding to MipZ, Related to Table 2.
(§3) (A) Fluorescence emission spectra of mant-ATP. MipZ (1 µM) and/or mant-ATP (60 µM) were mixed in buffer BC containing no (+ Mg2+) or 10 mM (- Mg2+) EDTA. Emission spectra were recorded in a PC1 photon-counting spectrofluorimeter (ISS) using fluorescence resonance energy transfer (FRET) and an excitation wavelength of 290 nm.
(§4) (B) Association of MipZ with mant nucleotides.
(§5) (data not shown), necessitating the use of ADP and ATP analogues that carried a fluorescent methylanthraniloyl (mant) group attached to the 2'- or 3'-hydroxy group of the ribose moiety. Due to the bulkiness of the mant group and a critical role of these hydroxy groups in MipZ dimerization, the modified nucleotides are predicted to block dimer formation, consistent with their failure to be hydrolyzed by MipZ or mediate MipZ self-association in the SPR assay (data not shown). This circumstance allowed us to focus the measurements on the initial nucleotide binding step without interference from subsequent reactions.
(§6) Interaction of the mant group with the protein surface led to a marked increase in fluorescence (panel A). Consistent with the easy accessibility of the nucleotide-binding site and the lack of major conformational changes, the transients recorded after rapid mixing of MipZ with mant nucleotides could be fitted to single-exponential equations, indicating single-step binding reactions.
(§7) Shown is a typical curve representing the change in mant fluorescence upon binding of mant-ATP (30 µM) to MipZ (1 µM).
(§8) Fitting of the data yielded a pseudo-first order rate constant (kobs) of 4.7 s-1. […]
(§9) determining the second-order rate constant of the association reaction. Shown is a representative graph in which the kobs values measured for mant-ATP were plotted against the corresponding mant-ATP concentrations. […]
(§10) (D) Dissociation of mant nucleotides from MipZ. In order to determine the dissociation rate constants (koff), we monitored the displacement of mant-labeled nucleotides from MipZ by an excess of unlabeled nucleotide. […] Shown is a typical curve representing the change in mant fluorescence upon dissociation of mant-ATP (30 µM) from MipZ (1 µM) in the presence of 2 mM ATP. […]

Assay [2] has as its target T2, G14V (Caulobacter vibrioides, UniProt Q9A6C9, G14V).
T2 construct: gene mipZ; hexahistidine-tagged, full length, overproduced in E. coli Rosetta2(DE3)pLysS; constitutively monomeric
T2 sequence (Q9A6C9 1-278 G14V): T1 sequence (Q9A6C9 1-278 D42A) with G14V, A42D
The assay is described as above.
Text: as §1, §2, §3, §4, §5, §6, §7, §8, §9, §10

Assay [3] concerns the target T3, K13A (Caulobacter vibrioides, UniProt Q9A6C9, K13A).
T3 construct: gene mipZ; hexahistidine-tagged, full length, overproduced in E. coli Rosetta2(DE3)pLysS; constitutively monomeric
T3 sequence (Q9A6C9 1-278 K13A): T1 sequence (Q9A6C9 1-278 D42A) with K13A, A42D
The description is as above.
Text: as §1, §2, §3, §4, §5, §6, §7, §8, §9, §10

The target of assay [4] is T4, WT (MipZ) (Caulobacter vibrioides, UniProt Q9A6C9).
T4 construct: hexahistidine-tagged, full length, overproduced in E. coli Rosetta2(DE3)pLysS
T4 sequence (Q9A6C9 1-278): T1 sequence (Q9A6C9 1-278 D42A) with A42D
Described as above.
Text: as §1, §2, §3, §4, §5, §6, §7, §8, §9, §10

Assay [5] concerns the target T1, D42A. Briefly: Stopped-flow FRET transient kinetics of mant-ATP binding to MipZ (excitation 297 nm, 360 nm cut-off) at 30 °C in 50 mM Hepes/NaOH pH 7.2, 50 mM KCl, 10 mM MgCl2, 1 mM β-mercaptoethanol; KD calculated as koff/kon, with koff from displacement by excess unlabeled nucleotide.
Text: as §1, §2, §3, §4, §5, §6, §7
(§11) Fitting of the data yielded a pseudo-first order rate constant (kobs) of 4.7 s-1.
(§12) (C) Determination of the second-order association rate constants (kon). The pseudo-first order rate constants for the association of […]
(§13) determining the second-order rate constant of the association reaction. Shown is a representative graph in which the kobs values measured for mant-ATP were plotted against the corresponding mant-ATP concentrations. Fitting of the data to the linear function kobs=kon[mant-ATP]+koff yielded a value of 6.8 x 104 M-1s-1 for kon.
(§14) (D) Dissociation of mant nucleotides from MipZ. In order to determine the dissociation rate constants (koff), we monitored the displacement of mant-labeled nucleotides from MipZ by an excess of unlabeled nucleotide. All transients obtained could be fitted to single-exponential functions. Shown is a typical curve representing the change in mant fluorescence upon dissociation of mant-ATP (30 µM) from MipZ (1 µM) in the presence of 2 mM ATP. […]

The target of assay [6] is T2, G14V. The assay is described as above.
Text: as §1, §2, §3, §4, §5, §6, §7, §11, §12, §13, §14

Assay [7] concerns the target T3, K13A. Described as above.
Text: as §1, §2, §3, §4, §5, §6, §7, §11, §12, §13, §14

Assay [8] deals with T5, K18Q (Caulobacter vibrioides, UniProt Q9A6C9, K18Q).
T5 construct: gene mipZ; hexahistidine-tagged, full length, overproduced in E. coli Rosetta2(DE3)pLysS; constitutively monomeric
T5 sequence (Q9A6C9 1-278 K18Q): T1 sequence (Q9A6C9 1-278 D42A) with K18Q, A42D
The description is as above.
Text: as §1, §2, §3, §4, §5, §6, §7, §11, §12, §13, §14

The target of assay [9] is T4, WT (MipZ). The assay is described as above.
Text: as §1, §2, §3, §4, §5, §6, §7, §11, §12, §13, §14

One may read the Kd as the free concentration of one partner at which half of the binding sites on the other are occupied at equilibrium, for simple one-to-one binding. As for `CNc1ccccc1C(=O)O[C@H]1[C@@H](O)[C@H](n2cnc3c(N)ncnc32)O[C@@H]1COP(=O)(O)OP(=O)(O)O` [mant-ADP, 2'/3'-O-methylanthraniloyl-ADP (methylanthraniloyl-labeled ADP)], the Kd in assay [1] was 69 µM; in [2] it was 4.5 µM; in [3] it was 41 µM; in assay [4], 26 µM.

As for `CNc1ccccc1C(=O)O[C@H]1[C@@H](O)[C@H](n2cnc3c(N)ncnc32)O[C@@H]1CO[P@@](=O)(O)O[P@](=O)(O)OP(=O)(O)O` [mant-ATP, 2'/3'-O-methylanthraniloyl-ATP (methylanthraniloyl-labeled ATP)], the Kd was 58 µM in assay [5]; 1.3 µM in assay [6]; 38 µM in [7]; 121 µM in assay [8]; 31 µM in assay [9].

The record behind these values is article PMC3355305, “Localized Dimerization and Nucleoid Binding Drive Gradient Formation by the Bacterial Cell Division Inhibitor MipZ” (Molecular Cell, 2012).
